Experimental data: US8796466B2, “Hepatitis C virus inhibitors” (Bristol-Myers Squibb Company, priority 2009, dated 2014)
pEC50: −log10 of the molar value. Read-outs that look alike come from different tables or passages of the source.

System: HCV 1b genotype
Experiment: HCV Replicon assay (HCV 1b genotype)
Assay type: cell-based, Hepatitis C virus
Conditions: HCV 1b genotype replicon
Description: An HCV Replicon assay was utilized in the present disclosure, and was prepared, conducted and validated as described in commonly owned PCT/US2006/022197 and in O'Boyle et. al. Antimicrob Agents Chemother. 2005 April; 49(4):1346-53. Assay methods incorporating luciferase reporters have also been used as described (Apath.com).
HCV-neo replicon cells and replicon cells containing mutations in the NS5A region were used to test the currently described family of compounds. The compounds were determined to have more than 10-fold less inhibitory activity on cells containing mutations than wild-type cells. Thus, the compounds of the present disclosure can be effective in inhibiting the function of the HCV NS5A protein and are understood to be as effective in combinations as previously described in application PCT/US2006/022197 and commonly owned WO/04014852. Further, the compounds of the present disclosure can be effective against the HCV 1b genotype. It should also be understood that the compounds of the present disclosure can inhibit multiple genotypes of HCV. […] In one embodiment, compounds of the present disclosure are inhibitory versus 1a, 1b, 2a, 2b, 3a, 4a, and 5a genotypes.

[1] = Hepatitis C virus, class symbol, read-out: Range (EC50 values against HCV 1b)

SMILES	pEC50 [1]	pEC50 (Hepatitis C virus, Effective 50% inhibitory concentration, read-out: 1b EC50)	pEC50 (class symbol, read-out: Range (EC50 values against HCV 1b))
COC(=O)N[C@H](C(=O)N1[C@@H]2C[C@@H]2C[C@H]1c1nc(Cl)c(-c2ccc(C#Cc3ccc(-c4[nH]c([C@@H]5C[C@H]6C[C@H]6N5C(=O)[C@@H](NC(=O)OC)C(C)C)nc4Cl)cc3)cc2)[nH]1)C(C)C [Example M9, methyl ((1S)-1-(((1R,3S,5R)-3-(4-chloro-5-(4-((4-(4-chloro-2-((1R,3S,5R)-2-((2S)-2-((methoxycarbonyl)amino)-3-methylbutanoyl)-2-azabicyclo[3.1.0]hex-3-yl)-1H-imidazol-5-yl)phenyl)ethynyl)phenyl)-1H-imidazol-2-yl)-2-azabicyclo[3.1.0]hex-2-yl)carbonyl)-2-methylpropyl)carbamate]	10.00 to 11.70	–	–
COC(=O)N[C@H](C(=O)N1[C@@H]2C[C@@H]2C[C@H]1c1nc(-c2ccc(C#Cc3ccc(-c4[nH]c([C@@H]5C[C@H]6C[C@H]6N5C(=O)[C@@H](NC(=O)OC)C5CCOCC5)nc4Cl)cc3)cc2)c[nH]1)C1CCOCC1 [Example M9.1, methyl ((1S)-2-((1R,3S,5R)-3-(4-(4-((4-(4-chloro-2-((1R,3S,5R)-2-((2S)-2-((methoxycarbonyl)amino)-2-(tetrahydro-2H-pyran-4-yl)acetyl)-2-azabicyclo[3.1.0]hex-3-yl)-1H-imidazol-5-yl)phenyl)ethynyl)phenyl)-1H-imidazol-2-yl)-2-azabicyclo[3.1.0]hex-2-yl)-2-oxo-1-(tetrahydro-2H-pyran-4-yl)ethyl)carbamate]	10.00 to 11.70	–	–
COC(=O)N[C@H](C(=O)N1[C@@H]2C[C@@H]2C[C@H]1c1nc(Cl)c(-c2ccc(C#Cc3ccc(-c4[nH]c([C@@H]5C[C@H]6C[C@H]6N5C(=O)[C@@H](NC(=O)OC)C5CCOCC5)nc4Cl)cc3)cc2)[nH]1)C1CCOCC1 [Example M9.2, dimethyl (1,2-ethynediylbis(4,1-phenylene(4-chloro-1H-imidazole-5,2-diyl)(1R,3S,5R)-2-azabicyclo[3.1.0]hexane-3,2-diyl((1S)-2-oxo-1-(tetrahydro-2H-pyran-4-yl)-2,1-ethanediyl)))biscarbamate]	10.00 to 11.70	–	–
COC(=O)N[C@H](C(=O)N1[C@@H]2C[C@@H]2C[C@H]1c1ncc(-c2ccc([C@H]3C[C@@H]3c3ccc(-c4cnc([C@@H]5C[C@H]6C[C@H]6N5C(=O)[C@@H](NC(=O)OC)C(C)C)[nH]4)cc3)cc2)[nH]1)C(C)C [Example M9.3]	10.00 to 11.70	–	–
COC(=O)N[C@H](C(=O)N1[C@@H]2C[C@@H]2C[C@H]1c1ncc(-c2ccc([C@H]3C[C@@H]3c3ccc(-c4cnc([C@@H]5C[C@H]6C[C@H]6N5C(=O)[C@@H](NC(=O)OC)C5CCOCC5)[nH]4)cc3)cc2)[nH]1)C1CCOCC1 [Example M9.4, dimethyl ((1S,2S)-1,2-cyclopropanediylbis(4,1-phenylene-1H-imidazole-4,2-diyl(1R,3S,5R)-2-azabicyclo[3.1.0]hexane-3,2-diyl((1S)-2-oxo-1-(tetrahydro-2H-pyran-4-yl)-2,1-ethanediyl)))biscarbamate]	10.00 to 11.70	–	–
COC(=O)N[C@H](C(=O)N1[C@@H]2C[C@@H]2C[C@H]1c1nc(-c2ccc([C@@H]3C[C@H]3c3ccc(-c4c[nH]c([C@@H]5C[C@H]6C[C@H]6N5C(=O)[C@@H](NC(=O)OC)C5CCOCC5)n4)cc3)cc2)c[nH]1)C1CCOCC1 [Example M9.6, dimethyl ((1R,2R)-1,2-cyclopropanediylbis(4,1-phenylene-1H-imidazole-4,2-diyl(1R,3S,5R)-2-azabicyclo[3.1.0]hexane-3,2-diyl((1S)-2-oxo-1-(tetrahydro-2H-pyran-4-yl)-2,1-ethanediyl)))biscarbamate]	10.00 to 11.70	–	–
COC(=O)N[C@H](C(=O)N1C[C@@H](C)C[C@H]1c1ncc(-c2ccc([C@H]3C[C@@H]3c3ccc(-c4cnc([C@@H]5C[C@H](C)CN5C(=O)[C@@H](NC(=O)OC)C(C)C)[nH]4)cc3)cc2)[nH]1)C(C)C [Example M9.7, methyl ((1S)-1-(((2S,4S)-2-(4-(4-((1S,2S)-2-(4-(2-((2S,4S)-1-((2S)-2-((methoxycarbonyl)amino)-3-methylbutanoyl)-4-methyl-2-pyrrolidinyl)-1H-imidazol-4-yl)phenyl)cyclopropyl)phenyl)-1H-imidazol-2-yl)-4-methyl-1-pyrrolidinyl)carbonyl)-2-methylpropyl)carbamate]	10.00 to 11.70	–	–
COC(=O)N[C@H](C(=O)N1C[C@@H](C)C[C@H]1c1ncc(-c2ccc([C@H]3C[C@@H]3c3ccc(-c4cnc([C@@H]5C[C@H](C)CN5C(=O)[C@@H](NC(=O)OC)C5CCOCC5)[nH]4)cc3)cc2)[nH]1)C1CCOCC1 [Example M9.8, dimethyl ((1S,2S)-1,2-cyclopropanediylbis(4,1-phenylene-1H-imidazole-4,2-diyl((2S,4S)-4-methyl-2,1-pyrrolidinediyl)((1S)-2-oxo-1-(tetrahydro-2H-pyran-4-yl)-2,1-ethanediyl)))biscarbamate]	10.00 to 11.70	–	–
COC(=O)N[C@H](C(=O)N1[C@@H](C)CC[C@H]1c1ncc(-c2ccc(C#Cc3ccc(-c4cnc([C@@H]5CC[C@H](C)N5C(=O)[C@@H](NC(=O)OC)C(C)C)[nH]4)cc3)cc2)[nH]1)C(C)C [Example M10, methyl ((1S)-1-(((2S,5S)-2-(4-(4-((4-(2-((2S,5S)-1-((2S)-2-((methoxycarbonyl)amino)-3-methylbutanoyl)-5-methyl-2-pyrrolidinyl)-1H-imidazol-4-yl)phenyl)ethynyl)phenyl)-1H-imidazol-2-yl)-5-methyl-1-pyrrolidinyl)carbonyl)-2-methylpropyl)carbamate]	10.00 to 11.70	–	–
CC[C@H](NC(=O)OC)C(=O)N1[C@@H](C)CC[C@H]1c1nc(-c2ccc(C#Cc3ccc(-c4c[nH]c([C@@H]5CC[C@H](C)N5C(=O)[C@H](CC)NC(=O)OC)n4)cc3)cc2)c[nH]1 [Example M11, dimethyl (1,2-ethynediylbis(4,1-phenylene-1H-imidazole-4,2-diyl((2S,5S)-5-methyl-2,1-pyrrolidinediyl)((2S)-1-oxo-1,2-butanediyl)))biscarbamate]	10.00 to 11.70	–	–
COC(=O)N[C@H](C(=O)N1[C@@H](C)CC[C@H]1c1nc(-c2ccc(C#Cc3ccc(-c4c[nH]c([C@@H]5CC[C@H](C)N5C(=O)[C@@H](NC(=O)OC)C5CCOCC5)n4)cc3)cc2)c[nH]1)C1CCOCC1 [Example M12, dimethyl (1,2-ethynediylbis(4,1-phenylene-1H-imidazole-4,2-diyl((2S,5S)-5-methyl-2,1-pyrrolidinediyl)((1S)-2-oxo-1-(tetrahydro-2H-pyran-4-yl)-2,1-ethanediyl)))biscarbamate]	10.00 to 11.70	–	–
COC(=O)N[C@H](C(=O)N1[C@@H](C)CC[C@H]1c1ncc(-c2ccc(C#Cc3ccc(-c4cnc([C@@H]5CC[C@H](C)N5C(=O)[C@@H](NC(=O)OC)C5CCOCC5)[nH]4)cc3)cc2)[nH]1)C(C)C [Example M12.1, methyl ((1S)-1-(((2S,5S)-2-(4-(4-((4-(2-((2S,5S)-1-((2S)-2-((methoxycarbonyl)amino)-2-(tetrahydro-2H-pyran-4-yl)acetyl)-5-methyl-2-pyrrolidinyl)-1H-imidazol-4-yl)phenyl)ethynyl)phenyl)-1H-imidazol-2-yl)-5-methyl-1-pyrrolidinyl)carbonyl)-2-methylpropyl)carbamate]	10.00 to 11.70	–	–
COC(=O)N[C@H](C(=O)N1C[C@@H](C)C[C@H]1c1ncc(-c2ccc(C#Cc3ccc(-c4cnc([C@@H]5C[C@H](C)CN5C(=O)[C@@H](NC(=O)OC)C(C)C)[nH]4)cc3)cc2)[nH]1)C(C)C [Example M12.2, methyl ((1S)-1-(((2S,4S)-2-(4-(4-((4-(2-((2S,4S)-1-((2S)-2-((methoxycarbonyl)amino)-3-methylbutanoyl)-4-methyl-2-pyrrolidinyl)-1H-imidazol-4-yl)phenyl)ethynyl)phenyl)-1H-imidazol-2-yl)-4-methyl-1-pyrrolidinyl)carbonyl)-2-methylpropyl)carbamate]	10.00 to 11.70	–	–
COC(=O)N[C@H](C(=O)N1C[C@@H](C)C[C@H]1c1ncc(-c2ccc(C#Cc3ccc(-c4cnc([C@@H]5C[C@H](C)CN5C(=O)[C@@H](NC(=O)OC)C5CCOCC5)[nH]4)cc3)cc2)[nH]1)C1CCOCC1 [Example M12.3, dimethyl (1,2-ethynediylbis(4,1-phenylene-1H-imidazole-4,2-diyl((2S,4S)-4-methyl-2,1-pyrrolidinediyl)((1S)-2-oxo-1-(tetrahydro-2H-pyran-4-yl)-2,1-ethanediyl)))biscarbamate]	10.00 to 11.70	10.85	–
COC(=O)N[C@H](C(=O)N1C[C@@H](C)C[C@H]1c1nc(-c2ccc(C#Cc3ccc(-c4[nH]c([C@@H]5C[C@H](C)CN5C(=O)[C@@H](NC(=O)OC)C(C)C)nc4Cl)cc3)cc2)c[nH]1)C(C)C [Example M12.4, methyl ((1S)-1-(((2S,4S)-2-(4-(4-((4-(4-chloro-2-((2S,4S)-1-((2S)-2-((methoxycarbonyl)amino)-3-methylbutanoyl)-4-methyl-2-pyrrolidinyl)-1H-imidazol-5-yl)phenyl)ethynyl)phenyl)-1H-imidazol-2-yl)-4-methyl-1-pyrrolidinyl)carbonyl)-2-methylpropyl)carbamate]	10.00 to 11.70	–	–
COC(=O)N[C@H](C(=O)N1C[C@@H](C)C[C@H]1c1nc(Cl)c(-c2ccc(C#Cc3ccc(-c4[nH]c([C@@H]5C[C@H](C)CN5C(=O)[C@@H](NC(=O)OC)C(C)C)nc4Cl)cc3)cc2)[nH]1)C(C)C [Example M12.5]	–	–	10.00 to 11.70
